Laboratory results as given in the NIST ThermoML archive (doi:10.1021/je7006742).

What was measured:
[1] = 101 kPa, Liquid
[2] = xn = mol fraction of the nth substance listed; conditions: 101 kPa, Liquid

COc1ccc(C=O)cc1 [4-methoxybenzaldehyde]
[1]
Conditions | mass density [kg/m3] | viscosity [mPa·s]
298.15 K | 1120 | 3.706
308.15 K | 1112 | 2.83
318.15 K | 1105 | 2.232

COc1ccc(C=O)cc1 [4-methoxybenzaldehyde] + C=CC#N
[2]
Conditions | mass density, 298.15 K [kg/m3] | mass density, 308.15 K [kg/m3] | mass density, 318.15 K [kg/m3] | speed of sound, 298.15 K [m/s] | viscosity, 298.15 K [mPa·s] | viscosity, 308.15 K [mPa·s] | viscosity, 318.15 K [mPa·s]
x2 = 0 | 1120 | 1112 | 1105 | – | 3.706 | 2.83 | 2.232
x2 = 0.222 | 1079 | 1072 | 1066 | 1446.6 | 2.035 | 1.828 | 1.53
x2 = 0.391 | 1040 | 1034 | 1029 | 1384.8 | 1.341 | 1.226 | 1.095
x2 = 0.524 | 1003 | 997 | 992 | 1345.8 | 0.865 | 0.852 | 0.798
x2 = 0.631 | 968 | 962 | 957 | 1310 | 0.742 | 0.678 | 0.644
x2 = 0.72 | 934 | 930 | 924 | 1277.6 | 0.55 | 0.538 | 0.515
x2 = 0.794 | 903 | 898 | 893 | 1244.6 | 0.545 | 0.469 | 0.443
x2 = 0.857 | 873 | 868 | 864 | 1217.8 | 0.415 | 0.404 | 0.39
x2 = 0.911 | 845 | 840 | 835 | 1201.6 | 0.435 | 0.369 | 0.37
x2 = 0.958 | 819 | 813 | 808 | – | 0.379 | 0.333 | 0.322
x2 = 0.959 | – | – | – | 1186.8 | – | – | –

O=CC=Cc1ccccc1 [(E)-3-phenyl-2-propanal]
[1]
Conditions | mass density [kg/m3] | viscosity [mPa·s]
298.15 K | 1046 | 3.478
308.15 K | 1039 | 2.688
318.15 K | 1032 | 2.296

O=CC=Cc1ccccc1 [(E)-3-phenyl-2-propanal] + C=CC#N
[2]
Conditions | mass density, 298.15 K [kg/m3] | mass density, 308.15 K [kg/m3] | mass density, 318.15 K [kg/m3] | speed of sound, 298.15 K [m/s] | viscosity, 298.15 K [mPa·s] | viscosity, 308.15 K [mPa·s] | viscosity, 318.15 K [mPa·s]
x2 = 0 | 1046 | 1039 | 1032 | – | 3.478 | 2.688 | 2.296
x2 = 0.2168 | 1017 | 1011 | – | – | 2.014 | 1.698 | –
x2 = 0.217 | – | – | 1009 | 1487.6 | – | – | 1.456
x2 = 0.3837 | 990 | 985 | – | – | 1.4 | 1.215 | –
x2 = 0.384 | – | – | 983 | 1433.3 | – | – | 1.078
x2 = 0.516 | – | – | 957 | 1403 | – | – | 0.83
x2 = 0.5163 | 964 | 958 | – | – | 1.02 | 0.906 | –
x2 = 0.624 | – | – | 930 | 1372 | – | – | 0.684
x2 = 0.6241 | 937 | 931 | – | – | 0.795 | 0.724 | –
x2 = 0.7135 | 911 | 905 | – | – | 0.646 | 0.603 | –
x2 = 0.714 | – | – | 904 | 1330.3 | – | – | 0.581
x2 = 0.7889 | 886 | 881 | – | – | 0.56 | 0.519 | –
x2 = 0.789 | – | – | 878 | 1288.7 | – | – | 0.457
x2 = 0.853 | – | – | 854 | 1251.2 | – | – | 0.43
x2 = 0.8532 | 862 | 856 | – | – | 0.474 | 0.441 | –
x2 = 0.9088 | 839 | 833 | – | – | 0.423 | 0.405 | –
x2 = 0.909 | – | – | 830 | 1224.1 | – | – | 0.394
x2 = 0.957 | – | – | 805 | 1186.8 | – | – | 0.348
x2 = 0.9573 | 817 | 810 | – | – | 0.388 | 0.359 | –

C=CC#N [acrylonitrile]
[1]
Conditions | mass density [kg/m3] | viscosity [mPa·s]
298.15 K | 794 | 0.344
308.15 K | 788 | 0.307
318.15 K | 783 | 0.284

C=CC#N [acrylonitrile] + COc1ccc(C=O)cc1
[2], x1 = 1
Conditions | mass density [kg/m3] | viscosity [mPa·s]
298.15 K | 794 | 0.344
308.15 K | 788 | 0.307
318.15 K | 783 | 0.284

C=CC#N [acrylonitrile] + O=CC=Cc1ccccc1
[2], x1 = 1
Conditions | mass density [kg/m3] | viscosity [mPa·s]
298.15 K | 794 | 0.344
308.15 K | 788 | 0.307
318.15 K | 783 | 0.284

C=CC#N [acrylonitrile] + O=Cc1ccccc1
[2]
Conditions | mass density, 298.15 K [kg/m3] | mass density, 308.15 K [kg/m3] | mass density, 318.15 K [kg/m3] | speed of sound, 298.15 K [m/s] | viscosity, 298.15 K [mPa·s] | viscosity, 308.15 K [mPa·s] | viscosity, 318.15 K [mPa·s]
x1 = 0.182 | 1022 | 1011 | 1005 | 1412.7 | 1.224 | 1.071 | 0.973
x1 = 0.333 | 995 | 985 | 980 | 1394.7 | 1.079 | 0.941 | 0.851
x1 = 0.462 | 969 | 959 | 954 | 1353.1 | 0.958 | 0.827 | 0.746
x1 = 0.571 | 940 | 932 | 928 | 1322.4 | 0.842 | 0.724 | 0.653
x1 = 0.667 | 914 | 906 | 902 | 1292.8 | 0.74 | 0.63 | 0.571
x1 = 0.75 | 887 | 880 | 877 | 1259.4 | 0.649 | 0.55 | 0.5
x1 = 0.824 | 863 | 856 | 854 | 1237.6 | 0.565 | 0.478 | 0.436
x1 = 0.889 | 839 | 833 | 830 | 1212 | 0.484 | 0.416 | 0.379
x1 = 0.947 | 816 | 810 | 806 | 1186.8 | 0.41 | 0.358 | 0.328
x1 = 1 | 794 | 788 | 783 | – | 0.344 | 0.307 | 0.284

O=Cc1ccccc1 [benzaldehyde]
[1]
Conditions | mass density [kg/m3] | viscosity [mPa·s]
298.15 K | 1041 | 1.399
308.15 K | 1034 | 1.224
318.15 K | 1027 | 1.12

O=Cc1ccccc1 [benzaldehyde] + C=CC#N
[2], x2 = 0
Conditions | mass density [kg/m3] | viscosity [mPa·s]
298.15 K | 1041 | 1.399
308.15 K | 1034 | 1.224
318.15 K | 1027 | 1.12
